A short description of data set [1]: Pharmacokinetics and oral bioavailability in dogs. The conditions noted are these: 2 /kg, Dog, oral, Dose/kg 2.0, plasma; for AUC: LC/MS/MS; for bioavailability: read-out: F (%) oral bioavailability; for clearance: read-out: CLtot (mL/min/kg) apparent plasma clearance. In kind it is in vivo. From the text: (§1) The pharmacokinetic parameter of the test compound orally administered to rats or dogs are described below.

Data set [2] in a line: Pharmacokinetics and oral bioavailability in rats. The following applies: Rat, oral, plasma; for AUC: LC/MS/MS; for bioavailability: read-out: F (%) oral bioavailability; for clearance: read-out: CLtot (mL/min/kg) apparent plasma clearance. It is filed as in vivo.
From the text: as §1

The next data set deals with VLA-4 (Homo sapiens, UniProt P05556+P13612). The conditions noted are these: in vitro, literature report; cited from earlier work.
Data set [3] concerns cardiac transplantation of rabbits. The conditions noted are these: literature report; cited from earlier work.
In a further data set the test system is VLA-4 expressed cells. The following applies: literature report; cited from earlier work.
The target in data set [4] is T1, integrins haα4 and β1 (VLA-4) expressed on CHO cells (Homo sapiens, UniProt P05556+P13612).
T1 construct: expressed in transfected cells; host or cells: CHO cells
As to the kind of experiment: In vitro Evaluation Test (1): binding of Eu3+-hVCAM-1 D1D7-IgG to CHO cells expressing integrins α4 and β1. The following applies: inhibition of Eu3+-hVCAM-1 D1D7-IgG binding to CHO cells expressing α4β1; Ki calculated from IC50. Summed up:
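CHO cells transduced with human α4 and β1 were grown for 2 days. They were incubated 1 h at room temperature with Eu3+-hVCAM-1 D1D7-IgG (diluted to 2 nM before addition) and compound, with or without 6% HSA, in HEPES pH 7.5 containing Ca2+, Mg2+ and 4 mM Mn2+. Time-resolved fluorescence gave IC50; Ki used a Scatchard-derived Kd (0.06–20 nM).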

Data set [5] is described as follows: Evaluation of oral bioavailability by mouse bioassay. It is filed as in vivo. The conditions noted are these: 10 mg/kg oral, female Balb/C mice, serum 15 minutes after administration, read-out: Blood level. A digest of the protocol: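 Female Balb/C mice aged 7–9 weeks received 10 mg/kg compound orally as a 1 mg/ml suspension or solution. Compound level was estimated either from a calibration curve using VCAM-1/VLA-4 inhibitory activity or by LC/MS/MS.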

The source of these data is patent US7157487B2, “Vla-4 inhibitors” (Daiichi Pharmaceutical Co., Ltd., priority 2000, dated 2007).

As a reminder, the AUC is the area under the concentration-time curve, a measure of exposure. Low values mean low exposure, high ones high exposure. What is called bioavailability is the share of a dose that reaches the circulation, judged against a reference dose that is usually intravenous. Usually Ki stands for a dissociation constant, usually derived from enzyme kinetics or from competition with a known ligand.

T1 sequence (P13612 34-1032): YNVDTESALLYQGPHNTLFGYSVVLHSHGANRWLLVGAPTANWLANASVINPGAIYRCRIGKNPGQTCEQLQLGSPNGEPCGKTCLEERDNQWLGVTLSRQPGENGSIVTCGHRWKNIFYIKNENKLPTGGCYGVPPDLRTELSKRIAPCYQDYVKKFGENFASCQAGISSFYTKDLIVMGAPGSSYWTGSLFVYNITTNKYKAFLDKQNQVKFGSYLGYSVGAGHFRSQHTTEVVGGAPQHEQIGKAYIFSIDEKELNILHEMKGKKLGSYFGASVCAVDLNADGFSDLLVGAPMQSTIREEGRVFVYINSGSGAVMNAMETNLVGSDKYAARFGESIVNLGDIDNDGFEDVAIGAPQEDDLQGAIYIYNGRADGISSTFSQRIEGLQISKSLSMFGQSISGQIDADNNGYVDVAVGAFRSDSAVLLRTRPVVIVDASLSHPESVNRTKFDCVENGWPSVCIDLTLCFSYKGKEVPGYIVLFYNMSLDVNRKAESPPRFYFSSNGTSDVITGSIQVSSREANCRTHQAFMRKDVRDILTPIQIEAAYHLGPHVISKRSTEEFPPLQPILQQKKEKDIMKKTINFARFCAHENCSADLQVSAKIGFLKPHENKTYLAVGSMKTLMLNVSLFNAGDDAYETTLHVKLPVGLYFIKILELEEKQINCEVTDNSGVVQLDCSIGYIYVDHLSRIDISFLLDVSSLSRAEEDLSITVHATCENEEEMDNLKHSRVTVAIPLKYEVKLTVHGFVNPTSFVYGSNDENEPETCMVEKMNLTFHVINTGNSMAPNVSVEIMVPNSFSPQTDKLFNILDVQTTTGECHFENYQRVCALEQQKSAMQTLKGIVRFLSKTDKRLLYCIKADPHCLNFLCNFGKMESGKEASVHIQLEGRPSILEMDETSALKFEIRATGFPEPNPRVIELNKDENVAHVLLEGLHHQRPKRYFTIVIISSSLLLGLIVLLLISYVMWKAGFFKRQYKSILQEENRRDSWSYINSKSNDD
T1 sequence (P05556 21-798): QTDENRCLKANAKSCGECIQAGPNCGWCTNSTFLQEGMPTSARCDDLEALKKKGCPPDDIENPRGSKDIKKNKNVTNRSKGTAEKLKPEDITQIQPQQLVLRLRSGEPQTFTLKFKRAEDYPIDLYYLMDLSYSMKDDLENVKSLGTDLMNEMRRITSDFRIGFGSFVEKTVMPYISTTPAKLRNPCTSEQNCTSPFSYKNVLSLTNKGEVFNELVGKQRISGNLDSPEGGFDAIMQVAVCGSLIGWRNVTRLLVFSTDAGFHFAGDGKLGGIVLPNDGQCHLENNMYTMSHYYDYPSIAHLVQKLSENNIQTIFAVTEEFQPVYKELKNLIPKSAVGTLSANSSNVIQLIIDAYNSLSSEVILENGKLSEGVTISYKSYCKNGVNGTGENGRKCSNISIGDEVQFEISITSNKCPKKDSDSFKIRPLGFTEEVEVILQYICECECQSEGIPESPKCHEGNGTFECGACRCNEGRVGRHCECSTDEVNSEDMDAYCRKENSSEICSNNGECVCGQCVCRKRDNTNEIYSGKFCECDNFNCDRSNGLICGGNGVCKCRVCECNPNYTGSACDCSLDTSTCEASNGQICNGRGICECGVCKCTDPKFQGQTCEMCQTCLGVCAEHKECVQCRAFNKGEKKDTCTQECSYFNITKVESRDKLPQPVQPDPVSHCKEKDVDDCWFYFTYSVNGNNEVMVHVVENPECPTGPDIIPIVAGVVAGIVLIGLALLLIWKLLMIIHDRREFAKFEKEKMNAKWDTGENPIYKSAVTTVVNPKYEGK
Chain of VLA-4 (P13612 34-1032): as the sequence (P13612 34-1032) above
Chain of VLA-4 (P05556 21-798): as the sequence (P05556 21-798) above

Turning to `CO[C@H]1C[C@@H](COC2CCC(C(=O)O)CC2)N(C(=O)Cc2ccc3nc(Nc4ccccc4C)oc3c2)C1` (single isomer, unassigned) [20 (Isomer A)], in data set [1], the AUC came out at 776 ng·h/mL, the bioavailability came out at 44% and the clearance was 19.1 mL/min/kg. Moreover, in data set [2] (2 /kg, Dose/kg 2.0), the area under the curve (AUC) came to 152 ng·h/mL, the bioavailability was determined as 35% and the clearance came to 73 mL/min/kg.

Turning to “phenylacetic acid-Leu-Asp-Phe-d-Pro-amide [synthetic CS-1 tetrapeptide]”, at VLA-4, the “inhibition of leukocyte adhesion mediated by VLA-4” value was “in vitro inhibition”. For the same molecule, the “advance of coronary arterial diseases” value in data set [3] is on record as “amelioration of advance of coronary arterial diseases”.

Regarding CQIDSPC, the “inhibition of adhesion of VLA-4 expressed cells to purified VCAM-1” value with VLA-4 expressed cells is given as “succeeded in inhibiting adhesion”.

`Cn1cc(C(=O)Nc2cc(F)c(CC(=O)N3C[C@@H](F)C[C@H]3CO[C@H]3CC[C@H](C(=O)O)CC3)cc2Cl)c2cc(F)ccc21` [Example 74, trans-4-(1-((5-Chloro-2-fluoro-4-(((5-fluoro-1-methyl-3-indolyl)carbonyl)amino)phenyl)acetyl)-(4S)-fluoro-(2S)-pyrrolidinylmethoxy)cyclohexanecarboxylic acid]: the Ki in data set [4] is 7.7 nM. For the same molecule, the concentration at 15 min in data set [5] is 14100 ng/mL.

As to `Cc1ccccc1Nc1nc2ccc(CC(=O)N3C[C@@H](F)C[C@H]3COC3CCC(C(=O)O)CC3)cc2o1` (single isomer, unassigned) [21 (Isomer H)], in data set [4], the inhibitory constant (Ki) was 2.5 nM. Moreover, in data set [1], the exposure (AUC) was determined as 760 ng·h/mL, the bioavailability is 40% and the clearance worked out at 17.9 mL/min/kg. In addition, in data set [2] (5 /kg, Dose/kg 5.0), the area under the curve (AUC) worked out at 14900 ng·h/mL, the bioavailability amounted to 52% and the clearance is 3.3 mL/min/kg.

Turning to `Cc1ccc(Cl)cc1Nc1nc2ccc(CC(=O)N3C[C@@H](F)C[C@H]3CO[C@H]3CC[C@H](C(=O)O)CC3)c(F)c2o1` [Example 43, trans-4-(1-((2-(5-Chloro-2-methylphenylamino)-7-fluoro-6-benzoxazolyl)acetyl)-(4S)-fluoro-(2S)-pyrrolidinylmethoxy)cyclohexanecarboxylic acid], the inhibition constant (Ki) in data set [4] is 6 nM. For the same molecule, the concentration at 15 min in data set [5] is 1190 ng/mL.
